What was measured:
[1] = tested on: Normal human articular chondrocytes of knee (NHAC-kn); experiment: Induction of alkaline phosphatase activity in normal human articular chondrocytes of knee by T3; format: cell-based; conditions: NHAC-kn cells, 0.05-50 nM T3, 6 days; FIG. 2
Procedure: Normal human articular chondrocytes of knee (NHAC-kn; Clonetics) were plated on gelatin-coated 24-well plates (Iwaki) at 2×10^5 cells/well and cultured in DMEM high glucose medium (Gibco) containing 1 μg/ml insulin, 1 μg/ml transferin, 1 ng/ml selenious acid (these components were contained in ITS; BD Bioscience), 1 mg/ml BSA, 50 μg/ml ascorbic acid phosphate magnesium salt n-hydrate (Wako) and 5 mM β-glycerophosphate in a CO2 incubator under 5% CO2 at 37° C. with addition of 0.05-50 nM T3 (triiodothyronine) (Sigma) if necessary. After 6 days, the culture broth was removed from cells and 200 μl of 10 mM Tris-HCl (pH 7.4) containing 0.1% Triton X-100 was added to each well. Then, cells were shaken at 4° C. for 1 hour on a horizontal shaker to thereby extract proteins from the cell layer. The alkaline phosphatase (AP) activity of the extract was determined from the yield of p-nitrophenol using p-nitrophenylphosphate as a substrate (Sigma). The protein content in the extract was measured with BCA protein assay reagent (Pierce) to thereby calculate the AP activity per a specific amount of protein.

[2] = tested on: Normal human articular chondrocytes of knee (NHAC-kn); experiment: Induction of MMP13 gene expression in normal human articular chondrocytes of knee by T3; format: cell-based; conditions: NHAC-kn cells, 0.1-10 nM T3, 6 days; FIG. 3
Procedure: Normal human articular chondrocytes of knee (NHAC-kn; Clonetics) were plated on gelatin-coated 96-well plates (Iwaki) at 2×10^5 cells/well and cultured in DMEM high glucose medium (Gibco) containing 1 μg/ml insulin, 1 μg/ml transferin, 1 ng/ml selenious acid (these components were contained in ITS; BD Bioscience) and 1 mg/ml BSA, and supplemented with 5 mM β-glycerophosphate (Sigma), 50 μg/ml ascorbic acid phosphate magnesium salt n-hydrate (Wako) and, if necessary, 0.1-10 nM T3 (triiodothyronine) (Sigma), in a CO2 incubator under 5% CO2 at 37° C. After 6 days, RNA was extracted from cells using RNeasy (Qiagen) according to the attached protocol. Using the total RNA as a template, cDNA was synthesized from random primers with TaqManreverse transcription reagent (Applied Biosystems). Subsequently, 2 μl of the reaction solution containing cDNA was mixed with a 2 μl reaction solution containing 0.34 μM of two primers (SEQ ID NO: 15 and SEQ ID NO: 16) and 1×PCR Master Mix (Applied Biosystems) and subjected to PCR. […]
The PCR was performed with ABI7700 sequence detector (Applied Biosystems). The number of copies of MMP13 cDNA was measured by real-time monitoring the amount of the PCR product. The number of copies of β-actin cDNA was also measured in the same manner using TaqMan β-actin control reagent (Applied Biosystems) and used as internal standard. […]

human DIO2 = target: T1, human DIO2 (Homo sapiens, UniProt Q92813); experiment: Thyroid hormone deiodinase activity (T3 production from T4, T3 RIA) in disrupted COS-7 cells with DIO2 expression plasmid pTB2249; format: biochemical; conditions: FIG. 4c
T1 construct: expressed in transfected cells; host or cells: COS-7 cells, transiently transfected with pTB2249 (pcDNA3.1 backbone), sonicated to disrupted cells
T1 sequence (Q92813 1-273): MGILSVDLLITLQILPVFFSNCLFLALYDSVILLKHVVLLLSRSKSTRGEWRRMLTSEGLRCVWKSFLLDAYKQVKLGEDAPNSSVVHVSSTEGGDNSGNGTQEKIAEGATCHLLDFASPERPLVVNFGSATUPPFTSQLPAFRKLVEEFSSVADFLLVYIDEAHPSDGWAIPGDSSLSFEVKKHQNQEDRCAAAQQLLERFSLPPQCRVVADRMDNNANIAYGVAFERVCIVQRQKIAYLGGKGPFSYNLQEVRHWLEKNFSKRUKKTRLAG
Source text: (§1) Using human thyroid-derived cDNA (Marathon Ready cDNA; Clontech) as a template, the following sequences were amplified by PCR: the amino acid coding sequence (cds) of human DIO1 (type 1 thyroid hormone deiodinase) using primer 1 (SEQ ID NO: 17) and primer 2 (SEQ ID NO: 18); DIO1 selenocystein insertion sequence (SECIS) using primer 3 (SEQ ID NO: 19) and primer 4 (SEQ ID NO: 20); human DIO2 cds using primer 5 (SEQ ID NO: 21) and primer 6 (SEQ ID NO: 22); and DIO2 SECIS (Buettner et al., 1998) using primer 7 (SEQ ID NO: 23) and primer 8 (SEQ ID NO: 24).
(§2) The resultant DNAs for human DIO1 cds and human DIO2 cds were inserted into pcDNA3.1 (Invitrogen) individually to thereby obtain plasmids pTB2240 and pTB2242. Further, the resultant DNAs for human DIO1 SECIS and human DIO2 SECIS were inserted into pCR2.1 (Invitrogen) individually to thereby obtain plasmids pTB2241 and pTB2244. DIO1 SECIS and DIO2 SECIS were cut out with restriction enzymes Sca I and Not I (Takara Shuzo) and introduced into DIO1 or DIO2 coding sequence-inserted plasmid pretreated with restriction enzymes Eco RV and Not I (Takara Shuzo) to thereby construct DIO1 expression plasmid pTB2248 and DIO2 expression plasmid pTB2249.
(§3) COS-7 cells (3×10^5) were plated in 6 cm petri dishes. […]

[3] = target: human DIO1 (type 1 thyroid hormone deiodinase) (Homo sapiens, UniProt P49895); conditions: 1 mM PTU, T4 concentration 5 μM, 37° C. one hour; FIG. 4b
Source text: as §1, §2, §3

Chain of human DIO1 (type 1 thyroid hormone deiodinase) (P49895 whole entry): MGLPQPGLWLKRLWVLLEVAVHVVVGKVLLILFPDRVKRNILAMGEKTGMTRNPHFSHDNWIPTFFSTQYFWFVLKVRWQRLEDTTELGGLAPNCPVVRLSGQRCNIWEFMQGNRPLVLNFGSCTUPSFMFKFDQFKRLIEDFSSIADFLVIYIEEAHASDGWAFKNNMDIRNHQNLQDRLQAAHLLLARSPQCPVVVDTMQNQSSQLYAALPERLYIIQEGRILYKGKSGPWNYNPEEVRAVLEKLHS

Compound: N[C@@H](Cc1cc(I)c(Oc2ccc(O)c(I)c2)c(I)c1)C(=O)O [T3, triiodothyronine]
- alkaline phosphatase (AP) activity of cell layer extract per amount of protein [1]: induced in a T3 concentration-dependent manner
- mRNA of MMP13 (number of copies of MMP13 cDNA normalized with β-actin) [2]: induced in a T3 concentration-dependent manner

Compound: N[C@@H](Cc1ccc(Oc2cc(I)c(O)c(I)c2)c(I)c1)C(=O)O [rT3, riverse triiodothyronine]
- inhibition of DIO2 activity of pTB2249 (T3 production) (human DIO2; rT3 5 μM, competition with T4, 37° C. one hour): partially inhibited

Compound: CCCc1cc(=O)[nH]c(=S)[nH]1 [PTU, propylthiouracil]
- inhibition of DIO1 activity (T3 production) [3]: completely inhibited
- influence on DIO2 activity of pTB2249 (T3 production) (human DIO2; 1 mM PTU, 37° C. one hour): influenced little

Reference: patent US20050171012A1, “Preventives/remedies for bone/joint diseases” (TAKEDA CHEMICAL INDUSTRIES, LTD., priority 2001, published 2005)
